Measured values as given in US10188743B2, “Cytisine-linked isoflavonoid antineoplastic agents for the treatment of cancer” (UNIVERSITY OF KENTUCKY RESEARCH FOUNDATION, priority 2016, dated 2019).

Assays:
Type in all cases: cell-based
S6 = S6 phosphorylation, mTor pathway (Western blotting); settings: PC-3 and LS174T cells
Experimental: Biochemistry. Western blotting: Cells were lysed in the appropriate volume of lysis buffer (50 mM HEPES, 100 mM NaCl, 2 mM EDTA, 1% glycerol, 50 mM NaF, 1 mM Na3VO4, 1% Triton X-100, with protease inhibitors). The following antibodies were used: HSD17B4 (GeneTex, GTX103864), AMPK (Cell Signaling, 2532), pAMPK (Cell Signaling, 2535), ACC (Cell Signaling, 3676), pACC (Cell Signaling, 11818), p^70 (Cell Signaling, 2708), p-p^70 (Cell Signaling, 9914), S6 (Cell Signaling, 2217), pS6 (Cell Signaling, 4858), MCCA (GeneTex, GTX110062), tubulin (Hybridoma Bank, E7), Actin (Sigma, A1978), His-tag (BD Pharmingen, 552564).

LS174T cancer cells [1] = assay: ATP analysis of treated cells
Experimental: ATP analysis: Cells growing in 12-well plates were treated with DMSO or inhibitors, and lysed by adding 1 mL boiling D.D. water. Supernatants were analyzed by luminescence using ATP Determination Kit (Invitrogen, A22066).

LS174T cancer cells [2] = assay: Acetyl-CoA analysis of treated cells
Experimental: Cell Metabolism. Acetyl-CoA analysis: Cells grown in 6 cm plates were treated with DMSO or inhibitors, and harvested in lysis buffer (20 mM Tris pH 7.5, 150 mM NaCl, 1 mM EDTA, 1 mM EGTA, 1% Triton X-100, 2.5 mM sodium pyrophosphate, 1 mM Na3VO4, 1 ug/mL Leupeptin, 1 mM PMSF and 1:100 Protease inhibitor cocktail). Supernatants were analyzed using PicoProbe Acetyl CoA kit (Abcam, ab87546).

LS174T cells = assay: Seahorse XF assay (OCR, ECAR)
Excerpt: We further characterized the effects of cytisine-linked isoflavonoid 10c on energy metabolism using a Seahorse XF assay (FIG. 4D-F) that measured oxygen consumption rate (OCR), which was an indicator of mitochondrial respiration, and measured extracellular acidification rate (ECAR), which was largely the result of glycolysis. […] Similar results were found in DLD-1 colon cancer cells and PC-3 prostate cancer cells (FIGS. 8 and 9). These OCR findings were consistent with the prior evaluation of these cytisine-linked isoflavonoids that targeted the hydratase activity in HSD17B4, inhibited VLCFA beta-oxidation, depressed acetyl CoA generation, decreased the ratio of ATP/AMP, and triggered AMPK activation (FIG. 5).
Seahorse assay: 3×10^4 cells were seeded in XF96 Cell Culture microplate (80 μL of 3.75×10^5 cells/m:). On the next day, cells were treated with DMSO or inhibitors and analyzed using the Seahorse analyzer in Redox Metabolism Shared Resource Facility (RM SRF) at the Markey Cancer Center.

[3] = tested on: LS174T colon cancer cells; assay: Cancer cell proliferation (Vi-Cell viability and number); settings: 10 μM of compound
Experimental: (§1) Cell Culture. LS74T colon cancer cells were cultured in MEM/EBSS (Hyclone SH30024) and PC-3 prostate cancer cells were cultured in DMEM/F-12 HAM Mixture (Sigma D8437) containing 10% Fetal Bovine Serum (Atlanta Biological S11150). Cells (3.5×10^4 cells per well) were split into 12-well plates. After 24 h, 10 μM of each compound were added to each well. DMSO was used as a control. Each experiment was done in triplicate. Cell viability and number were analyzed using the Vi-Cell XR Cell Viability Analyzer (Beckman Coulter). To knock-down HSD17B4 levels, PC-3 and LS174 cell lines were infected with lenti-virus carrying pLKO.1-control shRNA and pLKO.1-HSD17B4b shRNA, respectively. Control shRNA and HSD17B4b shRNA cloned in pLKO.1 vectors with puromycin-resistance selection marker were purchased from Sigma. Lentiviral stocks were prepared as previously described (Yu, 2012).

[4] = tested on: PC-3 prostate cancer cells; assay: as above; settings: 10 μM of compound
Experimental: as §1

Question: `O=c1c(-c2ccc(Cl)cc2)coc2cc(OCCN3C[C@@H]4C[C@@H](C3)c3cccc(=O)n3C4)ccc12` [Compound 10c, (1 S,5S)-3-(2-((3-(4-chlorophenyl)-4-oxo-4H-chromen-7-yl)oxy)ethyl)-3,4,5,6-tetrahydro-1H-1,5-methanopyrido[1,2-a][1,5]diazocin-8(2H)-one] was tested. Which “phosphorylation of S6” value (S6) did it give?
Answer: inhibited the phosphorylation

Question: And the “level of ATP” value (LS174T cancer cells [1])?
Answer: decreased the levels

Question: What about the “level of acetyl CoA” value (LS174T cancer cells [2]) of the same compound?
Answer: decreased the levels

Question: What about the respiration rates (LS174T cells) of the same compound?
Answer: significantly reduced the respiration rates

Question: And the “levels of ATP production” value (LS174T cells; OCR and ECAR assays)?
Answer: reduced the levels of ATP production

Question: What about the “proliferation of LS174T cells” value [3] of the same compound?
Answer: significantly inhibited the proliferation

Question: What about the “proliferation of PC-3 cells” value [4] of the same compound?
Answer: significantly inhibited the proliferation
